Converted amounts (≈) assume the structure as drawn.
Key:
Assay type in all cases: functional
[1] = tested on: HCT-116; assay: In vitro cytotoxicity assay was measured against human tumor HCT116 cell line using camptothecin as a standard; conditions: read-out: TD50 (the source's name)
[2] = tested on: L1210/Adr; assay: In vitro cytotoxicity assay was measured against human tumor L1210/Adr cell line using camptothecin as a standard; conditions: Mus musculus, read-out: TD50 (the source's name)
[3] = tested on: L1210; assay: In vitro cytotoxicity assay was measured against human tumor L1210 cell line using camptothecin as a standard; conditions: Mus musculus, read-out: TD50 (the source's name)
[4] = tested on: KB; assay: In vitro cytotoxicity assay was measured against human tumor KB cell line using camptothecin as a standard; conditions: read-out: TD50 (the source's name)
[5] = tested on: MCF7; assay: In vitro cytotoxicity assay was measured against human tumor MCF-7 cell line using camptothecin as a standard; conditions: read-out: TD50 (the source's name)
[6] = tested on: KB; assay: In vitro cytotoxicity assay was measured against human tumor KB cell line; conditions: read-out: TD50 (the source's name)
[7] = tested on: MCF7; assay: In vitro cytotoxicity assay was measured against human tumor MCF-7 cell line; conditions: read-out: TD50 (the source's name)
[8] = tested on: L1210; assay: In vitro cytotoxicity assay was measured against human tumor L1210 cell line; conditions: Mus musculus, read-out: TD50 (the source's name)
[9] = tested on: HCT-116; assay: In vitro cytotoxicity assay was measured against human tumor HCT116 cell line; conditions: read-out: TD50 (the source's name)
[10] = tested on: L1210/Adr; assay: In vitro cytotoxicity assay was measured against human tumor L1210/Adr cell line; conditions: Mus musculus, read-out: TD50 (the source's name)

Row | Structure (SMILES) | CC50 [1] | CC50 [2] | CC50 [3] | CC50 [4] | CC50 [5] | CC50 [6] | CC50 [7] | CC50 [8] | CC50 [9] | CC50 [10]
1 | CCC1(O)C(=O)OCc2c1cc1n(c2=O)Cc2cc3cc(OCCNC(=O)S(=O)(=O)c4cccs4)ccc3nc2-1 (stereo not given) | 0.01 ng/mL (≈ 0.0172 nM) | 0.1 ng/mL (≈ 0.172 nM) | 0.085 ng/mL (≈ 0.146 nM) | 0.5 ng/mL (≈ 0.86 nM) | 100 ng/mL (≈ 172 nM) |  |  |  |  | 
2 | CCC1(O)C(=O)OCc2c1cc1n(c2=O)Cc2cc3cc(OCCNC(=O)c4nccn4COC)ccc3nc2-1 (stereo not given) | 3 ng/mL (≈ 5.5 nM) | 10 ng/mL (≈ 18.3 nM) | 2 ng/mL (≈ 3.67 nM) | 7 ng/mL (≈ 12.8 nM) | 750 ng/mL (≈ 1370 nM) |  |  |  |  | 
3 | CCC1(O)C(=O)OCc2c1cc1n(c2=O)Cc2cc3cc(OCCNC(=O)c4cccn4C)ccc3nc2-1 (stereo not given) | 0.01 ng/mL (≈ 0.0194 nM) | 0.95 ng/mL (≈ 1.85 nM) | 0.2 ng/mL (≈ 0.389 nM) | 0.5 ng/mL (≈ 0.972 nM) | 140 ng/mL (≈ 272 nM) |  |  |  |  | 
4 | CCC1(O)C(=O)OCc2c1cc1n(c2=O)Cc2cc3cc(OCCNC(=O)c4cccn4COC)ccc3nc2-1 (stereo not given) | 0.7 ng/mL (≈ 1.29 nM) | 15 ng/mL (≈ 27.5 nM) | 1 ng/mL (≈ 1.84 nM) | 5 ng/mL (≈ 9.18 nM) | 120 ng/mL (≈ 220 nM) |  |  |  |  | 
5 | CCC1(O)C(=O)OCc2c1cc1n(c2=O)Cc2cc3cc(OCCNC(=O)C4CCCO4)ccc3nc2-1 (stereo not given) | 55 ng/mL (≈ 109 nM) | 320 ng/mL (≈ 633 nM) | 50 ng/mL (≈ 98.9 nM) | 69 ng/mL (≈ 136 nM) | 900 ng/mL (≈ 1780 nM) |  |  |  |  | 
6 | CCC1(O)C(=O)OCc2c1cc1n(c2=O)Cc2cc3cc(OCCNC(=O)c4ccc[nH]4)ccc3nc2-1 (stereo not given) | 0.01 ng/mL (≈ 0.02 nM) | 1 ng/mL (≈ 2 nM) | 0.1 ng/mL (≈ 0.2 nM) | 0.4 ng/mL (≈ 0.799 nM) | 260 ng/mL (≈ 519 nM) |  |  |  |  | 
7 | COc1cccc2c1C(=O)c1c(O)c3c(c(O)c1C2=O)C[C@@](O)(C(=O)CO)C[C@@H]3O[C@H]1C[C@H](N)[C@H](O)[C@H](C)O1 [DOXORUBICIN] | 30 ng/mL (≈ 55.2 nM) | 400 ng/mL (≈ 736 nM) | 6 ng/mL (≈ 11 nM) | 15 ng/mL (≈ 27.6 nM) | 150 ng/mL (≈ 276 nM) |  |  |  |  | 
8 | CC[C@@]1(O)C(=O)OCc2c1cc1n(c2=O)Cc2cc3ccccc3nc2-1 [CAMPTOTHECIN] |  |  |  |  |  | 8 ng/mL (≈ 23 nM) | 10 ng/mL (≈ 28.7 nM) | 10 ng/mL (≈ 28.7 nM) | 6 ng/mL (≈ 17.2 nM) | 45 ng/mL (≈ 129 nM)
9 | CCC1(O)C(=O)OCc2c1cc1n(c2=O)Cc2cc3cc(OCCNC(=O)c4cccs4)ccc3nc2-1 (stereo not given) | 0.04 ng/mL (≈ 0.0773 nM) | 1.5 ng/mL (≈ 2.9 nM) | 0.1 ng/mL (≈ 0.193 nM) | 0.5 ng/mL (≈ 0.966 nM) | 68 ng/mL (≈ 131 nM) |  |  |  |  | 
10 | CCC1(O)C(=O)OCc2c1cc1n(c2=O)Cc2cc3cc(OCCNC(=O)c4ccco4)ccc3nc2-1 (stereo not given) | 1 ng/mL (≈ 1.99 nM) | 15 ng/mL (≈ 29.9 nM) | 4 ng/mL (≈ 7.98 nM) | 5 ng/mL (≈ 9.97 nM) | 820 ng/mL (≈ 1640 nM) |  |  |  |  | 
11 | CCC1(O)C(=O)OCc2c1cc1n(c2=O)Cc2cc3cc(OCCNC(=O)/C=C/c4ccco4)ccc3nc2-1 (stereo not given) | 65 ng/mL (≈ 123 nM) | 140 ng/mL (≈ 265 nM) | 50 ng/mL (≈ 94.8 nM) | 83 ng/mL (≈ 157 nM) | 1000 ng/mL (≈ 1900 nM) |  |  |  |  | 
